“Also recorded” adds a separate entry of the source.
Assays:
[1] = tested on: IAPP mediated toxicity in rat INS-1 cells; assay: IAPP mediated toxicity in INS-1 cells; format: cell-based; conditions: equimolar ratio
Aβ42 [2] = target: T1, Aβ42 (Homo sapiens, UniProt P05067); assay: Dot blot assay with A11 antibody; format: biochemical; conditions: Aβ42, equimolar ratio, whole time course
T1 construct: Cleavage of APP results in several Aβ isoforms; The predominant species are Aβ42 and Aβ40; purchased Anaspec (Fremont, Calif., USA)
Protocol: Samples of Aβ42 at concentrations from 2 μM to 5 μM were incubated at various time intervals in the absence and presence of the compounds of the invention at an equimolar ratio (see FIG. 4j). The samples were then applied to a nitrocellulose membrane and dried at room temperature for 1 h or overnight at 4° C. The membranes were then blocked with 5% nonfat milk in Tris buffer (20 mM Tris, pH 7.4) for 1 h at room temperature. The nitrocellulose membranes were then washed (×3) with 20 mM Tris, pH 7.4 supplemented with 0.01% Tween-20 (TBST) and incubated with polyclonal A11 antibody (1/1000 dilution in 5% nonfat milk in TBST, Life Technologies Corp., Grand Island, N.Y., USA) overnight at 4° C. Samples were then washed (×3) with TBST buffer and incubated with horseradish peroxidase (HRP) conjugated anti-rabbit IgG (1/500 dilution in 5% nonfat free milk in TBST) at r.t. for 1 h. The dot blots were then washed with TBST buffer (×3), developed using the ECL reagent kit (Amersham, Piscataway, N.J., USA), and imaged using a Typhoon FLA 9000 instrument (GE Healthcare Life Sciences, Pittsburgh, Pa., USA) using chemiluminescence settings. A similar experiment was repeated using 6E10 antibody ( 1/1000 dilution in 5% nonfat free milk in TBST, Biolegend, San Diego, Calif., USA) for comparison.

Neuro-2a cells = assay: Effect of compound alone on Neuro-2a cell viability; format: cell-based, mouse; conditions: for toxicity of compound alone to Neuro-2a cells: matched cytotoxic experimental conditions, no Aβ42
Protocol: To investigate the toxic effect of the peptide alone on cell viability, solution (B) without the oligopyridylamide compound was mixed with solution (A), while the effect of the oligopyridylamide compound alone was determined by adding solution (A) without peptide to solution (B). The effect of oligopyridylamides on seed-catalyzed Aβ42 aggregation was probed by preparing an additional solution (C) containing 0.5 μM seeds. The volume contributed by solution (C) was taken into account in preparing solution (B). Solution (C) was mixed with solution (B), and the resulting mixture was then added to solution (A) shortly before addition to the wells. To study the effect of oligopyridylamides on the oligomeric states of Aβ42, solution (A) was mixed with solution (B) without inhibitor and incubated at room temperature for 1, 2 or 3 h. Subsequently, 50 μM oligopyridylamides was added to the mixture, which was then immediately added to the cells. […] The MTS reagent was incubated for 2.5 h at 37° C., and absorbance of the soluble formazan product (λ=490 nm) of MTS reduction was measured on a Synergy H1MF Multi-Mode microplate-reader (BioTek, Winooski, Vt., USA), with a reference wavelength of 650 nm to subtract the background. Wells treated with a solution containing serum-free DMEM, 200 μM NaOH, 0.1×PBS and 0.5% (v/v) DMSO served as control. MTS reduction was determined from the ratio of the absorbance of the treated wells to the control wells. Each data point represents an average of four independent quadruplet-well trials.

Aβ42 [3] = target: T1, Aβ42; assay: ThT-based kinetic assay of Aβ42 aggregation; format: biochemical; conditions: 5 μM Aβ42, equimolar, compound added at 2 h
Aβ42 [4] = target: T1, Aβ42; assay: ELISA with Aβ oligomer-specific antibody (OMAB); format: biochemical; conditions: for Aβ42 oligomers by ELISA on delayed addition: 2 μM Aβ42, compound added at 3 h and 6 h, equimolar; for ELISA absorbance (soluble Aβ42 oligomers, OMAB): Aβ42 incubated with compound, equimolar ratio, all time points
Protocol: The ELISA was performed according to a previously published method (see Lindhagen-Persson, M.; Brännström, K.; Vestling, M.; Steinitz, M.; Olofsson, A. PLoS ONE 2010, 5, e13928). A Nunc-Immuno MaxiSorp plate (Sigma Aldrich, St. Louis, Mo., USA) was incubated with 2 μg mL^−1 Aβ oligomer-specific antibody (OMAB, Agrisera, Sweden) in PBS buffer overnight at 4° C. (200 μl/well). Wells were blocked with 5% fat-free milk in PBS buffer with 0.1% Tween 20 (PBST) for 1 h at 4° C. and washed with PBST buffer (×3). Wells were then treated with Aβ42 samples overnight at 4° C. […] Samples were diluted by 1:30 in PBS buffer before adding to a 96-well plate. After adding Aβ42 samples, the wells were washed (×3) with PBST buffer followed by the addition of 6E10 antibody (1/1000 dilution in 5% nonfat free milk in PBST buffer) for 1 h at r.t. Wells were washed (×5) with PBST buffer and treated with an anti-mouse HRP-conjugated IgG (1/10,000 dilution in 5% nonfat free milk in PBST buffer). Wells were washed (×5) with PBST buffer and treated with TMB Peroxidase EIA Substrate Kit (Biorad, Hercules, Calif., USA). The plates were developed until the color of the solution turned blue. The reaction was stopped by adding 100 μL of 1N H2SO4 to each well. The color of the solution changed to yellow from blue. The absorbance was recorded at 450 nm on a FlexStation 3 Multi-Mode Microplate reader from Molecular Devices (Sunnyvale, Calif., USA). Each sample was repeated in triplicate.

T1 sequence (P05067 672-713 limits assumed): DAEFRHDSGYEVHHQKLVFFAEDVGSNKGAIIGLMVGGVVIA

COC(=O)c1ccc(NC(=O)c2ccc(NC(=O)c3ccc(NC(=O)c4ccc([N+](=O)[O-])c(OCC(C)C)n4)c(OCc4ccccc4)n3)c(OCC(=O)O)n2)c(OCC(=O)O)n1 [ADH-31]
cell viability ([1]; IAPP, INS-1 cells, IAPP alone 65±6%): 98±4% | A11 signal intensity of the dots (Aβ42 [2]): weak intensities | toxicity of compound alone to Neuro-2a cells (Neuro-2a cells): not toxic | effect on Aβ42 amyloid reaction on delayed addition (Aβ42 [3]): effective in inhibiting | Aβ42 oligomers by ELISA on delayed addition (Aβ42 [4]): no evidence of oligomers | ELISA absorbance (soluble Aβ42 oligomers, OMAB) (Aβ42 [4]): significantly lower

COC(=O)c1ccc(NC(=O)c2ccc(NC(=O)c3ccc([N+](=O)[O-])c(OCc4ccccc4)n3)c(OCCCN)n2)c(OCCCN)n1 [ADH-41]
effect on IAPP mediated toxicity ([1]; rat INS-1 cells): did not have any effect; also recorded: no effect | A11 signal intensity of the dots (Aβ42 [2]): significantly weaker | cell viability, compound alone (Neuro-2a cells; 4 μM ADH-41 + 1 μM ADH-41F, N2a cells, 24 h): 98% | toxicity of compound alone to Neuro-2a cells (Neuro-2a cells): not toxic | effect on Aβ42 amyloid reaction on delayed addition (Aβ42 [3]): effective in inhibiting | Aβ42 oligomers by ELISA on delayed addition (Aβ42 [4]): no evidence of oligomers | ELISA absorbance (soluble Aβ42 oligomers, OMAB) (Aβ42 [4]): significantly lower

Reference: patent publication US10723716B2, “Alpha-helix mimetics as modulators of Abeta self-assembly” (New York University, priority 2016, dated 2020)
